Test results reported in PubChem BioAssay AID256 (DTP/NCI, 2004).
“And” between values parts separate entries of the source, which are not always exact repeats. Equal values may be shown once. Toxic doses and inconclusive results are not listed.

System: CD2F1 mice, L1210 leukemia ip, survival T/C
Assay: NCI In Vivo Anticancer Drug Screen. Data for tumor model L1210 Leukemia (intraperitoneal) in CD2F1 (CDF1) mice
Conditions: endpoint: mean survival time, higher = longer survival
Outline: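 Tumor-bearing mice (transplanted tumor) were split into treated and vehicle control groups, and the measured endpoint of each treated group was divided by that of its vehicle controls.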

[1] = dose: 25.0 mg/kg/injection, schedule: Q01DX009 (ip), vehicle: saline with Tween-80
[2] = dose: 50.0 mg/kg/injection, schedule: Q01DX009 (ip), vehicle: saline with Tween-80
[3] = dose: 100.0 mg/kg/injection, schedule: Q01DX009 (ip), vehicle: saline with Tween-80
[4] = dose: 100.0 mg/kg/injection, schedule: Q01DX001 (ip), vehicle: saline with Tween-80
[5] = dose: 200.0 mg/kg/injection, schedule: Q01DX001 (ip), vehicle: saline with Tween-80
[6] = dose: 6.25 mg/kg/injection, schedule: Q01DX009 (ip), vehicle: saline with Tween-80
[7] = dose: 12.5 mg/kg/injection, schedule: Q01DX009 (ip), vehicle: saline with Tween-80

CNC(=O)OC(C)CC(O)(C(F)(F)F)C(F)(F)F (centres undefined)
T/C [1]: 97 % of control | T/C (dose: 25.0 mg/kg/injection, schedule: Q04DX003 (ip), vehicle: saline with Tween-80): 96 % of control | T/C [2]: 101 % of control | T/C (dose: 50.0 mg/kg/injection, schedule: Q04DX003 (ip), vehicle: saline with Tween-80): 98 % of control | T/C [3]: 98 % of control | T/C (dose: 100.0 mg/kg/injection, schedule: Q04DX003 (ip), vehicle: Klucel (hydroxypropylcellulose) (HPC)): 96 % of control | T/C (dose: 100.0 mg/kg/injection, schedule: Q04DX003 (ip), vehicle: saline with Tween-80): 98 % of control

O=NN(CCCl)C(=O)NC1CSCSC1
T/C (dose: 6.0 mg/kg/injection, schedule: Q01DX001 (ip), vehicle: saline with Tween-80): 164 % of control | T/C (dose: 9.0 mg/kg/injection, schedule: Q01DX001 (ip), vehicle: saline with Tween-80): 297 % of control | T/C (dose: 13.0 mg/kg/injection, schedule: Q01DX001 (ip), vehicle: saline with Tween-80): 331 % of control | T/C (dose: 20.0 mg/kg/injection, schedule: Q01DX001 (ip), vehicle: saline with Tween-80): 352 % of control | T/C (dose: 30.0 mg/kg/injection, schedule: Q01DX001 (ip), vehicle: saline with Tween-80): 344 % of control

[CH3][Sn]([CH3])([Cl])[Cl]
T/C (dose: 5.0 mg/kg/injection, schedule: Q01DX009 (ip), vehicle: saline): 106 % of control | T/C (dose: 10.0 mg/kg/injection, schedule: Q01DX009 (ip), vehicle: saline): 98 % of control | T/C (dose: 20.0 mg/kg/injection, schedule: Q01DX009 (ip), vehicle: saline): 95 % of control

CS/C([S-])=N/[NH-].CS/C([S-])=N/[NH-].[Pd]
T/C [4]: 107 % of control | T/C [5]: 103 % of control

CCc1ccc(C2=C(O)C(=O)C(c3ccc(CC)cc3)=C(O)C2=O)cc1
T/C (dose: 1.56 mg/kg/injection, schedule: Q01DX001 (ip), vehicle: Klucel (hydroxypropylcellulose) (HPC)): 97 % of control | T/C (dose: 3.12 mg/kg/injection, schedule: Q01DX009 (ip), vehicle: saline with Tween-80): 97 % of control | T/C (dose: 3.13 mg/kg/injection, schedule: Q01DX001 (ip), vehicle: Klucel (hydroxypropylcellulose) (HPC)): 96 % of control | T/C (dose: 6.25 mg/kg/injection, schedule: Q01DX001 (ip), vehicle: Klucel (hydroxypropylcellulose) (HPC)): 96 % of control | T/C [6]: 89 % of control and 109 % of control | T/C [7]: 104 % of control | T/C (dose: 25.0 mg/kg/injection, schedule: Q01DX001 (ip), vehicle: Klucel (hydroxypropylcellulose) (HPC)): 120 % of control | T/C [1]: 106 % of control and 111 % of control | T/C [2]: 119 % of control

CCC[CH2][Sn]1([CH2]CCC)[O]OC2(CCCCC2)[O]1
T/C (dose: 1.25 mg/kg/injection, schedule: Q01DX009 (ip), vehicle: saline with Tween-80): 105 % of control | T/C (dose: 2.5 mg/kg/injection, schedule: Q01DX009 (ip), vehicle: saline with Tween-80): 105 % of control | T/C (dose: 5.0 mg/kg/injection, schedule: Q01DX009 (ip), vehicle: saline with Tween-80): 105 % of control

O=c1cc(NCCCCOc2ccccc2)[nH]c(=O)[nH]1
T/C [4]: 96 % of control | T/C [5]: 93 % of control | T/C (dose: 400.0 mg/kg/injection, schedule: Q01DX001 (ip), vehicle: saline with Tween-80): 96 % of control

O=C(O)c1cc(-c2ccc(-c3ccc(-c4cc(C(=O)O)c5cc(Cl)ccc5n4)cc3)cc2)nc2ccc(Cl)cc12
T/C [3]: 91 % of control | T/C (dose: 200.0 mg/kg/injection, schedule: Q01DX009 (ip), vehicle: saline with Tween-80): 91 % of control | T/C (dose: 400.0 mg/kg/injection, schedule: Q01DX009 (ip), vehicle: saline with Tween-80): 100 % of control

Oc1ccc(/C=N/NC(=S)Nc2ccccc2)nc1
T/C (dose: 100.0 mg/kg/injection, schedule: Q04DX002 (ip), vehicle: saline with Tween-80): 106 % of control | T/C (dose: 200.0 mg/kg/injection, schedule: Q04DX002 (ip), vehicle: saline with Tween-80): 106 % of control | T/C (dose: 400.0 mg/kg/injection, schedule: Q04DX002 (ip), vehicle: saline with Tween-80): 95 % of control

COC1=C(OC)C(=O)C(SCc2ccc(OC)cc2)=CC1=O
T/C [6]: 102 % of control | T/C [7]: 91 % of control | T/C [1]: 87 % of control

COc1cc2ccc3c(c2cc1OC)C(=O)CNC3C (centres undefined)
T/C (dose: 3.13 mg/kg/injection, schedule: Q01DX009 (ip), vehicle: saline): 105 % of control | T/C (dose: 6.25 mg/kg/injection, schedule: Q01DX009 (ip), vehicle: saline): 98 % of control | T/C (dose: 12.5 mg/kg/injection, schedule: Q01DX009 (ip), vehicle: saline): 104 % of control
